Data on 1 compound can be found in US20250221930A1, “A COMPOSITION COMPRISING LIPID NANOPARTICLES AND AN ANTIFUNGAL POLYENE” (INSTITUT NATIONAL DE LA SANTÉ ET DE LA RECHERCHE MÉDICALE, priority 2022, published 2025).

In brackets after ≈: the same amount, converted by molar mass. Like-named read-outs stand apart in the source and are kept apart here.

Broadly, the MIC is the lowest concentration found to suppress growth.

One data set has as its system Rhizopus arrhizus 1. In words: Checkerboard MICs of AmB, ISA and PEG15HS in solution. In kind it is cell-based. Conditions: RPMI, 24 h at 37° C. The method, then:
(§1) AmB minimum inhibitory concentrations (MIC) of each strain of Mucorales was measured in RPMI in the presence of different concentrations of ISA or PEG15HS as described by the EUCAST broth microdilution antifungal susceptibility test methodology with modification for the checkerboard procedure. Checkerboards were performed by adding 100 μL of two-fold dilutions of AmB (0.008 to 4 mg/L) and ISA (0.008 to 4 mg/L) or PEG15HS (0.04 to 2752 mg/L) in 96 well plates. One hundred microliters of a spore suspension at a concentration of 105 spores/mL were added to the wells, and the plates were incubated for 24 h at 37° C. […] Three experiments were performed for each strain.
(§2) AmB MIC of each strain of Mucorales was measured in RPMI in the presence of different concentrations of ISA and a constant concentration of PEG15HS (100 times the concentration of AmB) as described by the EUCAST broth microdilution antifungal susceptibility test methodology with modification for the checkerboard procedure. Checkerboards were performed by adding 100 μL of two-fold dilutions of AmB (0.008 to 4 mg/L)+PEG15HS (0.8 to 400 mg/L) and ISA (0.008 to 4 mg/L) in 96 well plates. One hundred microliters of a spore suspension at a concentration of 105 spores/mL were added to the wells, and the plates were incubated for 24 h at 37° C. […] Three experiments were performed for each strain. […]

The test system of another data set is Cryptococcus neoformans. In words: EUCAST MICs of AmB alone and AmB formulated in LNPs. The format is cell-based. The protocol:
This medium was sterilized using a 0.22 μm pore-size filter.
AmB powder (Sigma-Aldrich) was dissolved in dimethyl sulfoxide to obtain a stock solution at 1000 mg/L, stored at −80° C. for six months.
On the day of use, AmB and freshly made AmB-loaded LNPs were diluted in RPMI medium to obtain the desired concentrations. The AmB-loaded LNPs were prepared as detailed in Example 5.
MICs of AmB alone and AmB formulated in LNPs were evaluated according to the European Committee on Antimicrobial Susceptibility Testing (EUCAST) guidelines. Briefly, MICs were determined by adding 100 μL of two-fold dilutions of AmB (0.008 to 4 mg/L) and LNPs-AmB (0.04 to 1024 mg/L) in 96-well plates. One hundred microliters of a fungal suspension at a final concentration of 10^5 CFU/mL was added to the wells, and the plates were incubated for 48 h at 30° C. MICs, defined as the lowest concentration of AmB inhibiting 90% of the growth of the fungal strain, were read after […] of incubation by measuring absorbance at 530 nm with an Infinite M200 Pro microplate reader (Tecan®, France). Three experiments were performed for each strain.

Another data set concerns L. corymbifera. Briefly: Checkerboard MICs of AmB, ISA and PEG15HS in solution. In kind it is cell-based, Lichtheimia corymbifera. To be noted: RPMI, 24 h at 37° C. The protocol: as §1, §2
In data set [1] the test system is Twelve clinical isolates of Mucorales. Briefly: Checkerboard AmB MIC with surfactant in solution, statements over all isolates. In kind it is cell-based. The protocol:
Twelve clinical isolates of Mucorales identified by ARNr sequencing were used: Rhizopus arrhizus (5), Rhizopus microsporus (1), Lichtheimia corymbifera (3), Lichtheimia ramosa (1), Mucor circinelloides (1), Rhizomucor pusillus (1). Isolates were subcultured from frozen stocks (−80° C.) on 75 cm^3 flasks containing 15 mL of Sabouraud dextrose agar (Sigma-Aldrich, St. Quentin Fallavier, France) during 3 days at 37° C. Spores were collected by flooding the flask with 10 ml of sterile water. The suspensions were filtered on nylon filter (Millipore, Carrigtwohill, Ireland) with pore size of 11 μm to remove hyphal elements. The concentration of the spore suspensions was then adjusted in sterile water to obtain inocula of 2×10^5 spores/mL. […]
AmB minimum inhibitory concentrations (MIC) of each strain of Mucorales was measured in RPMI the presence of different concentrations of surfactant as described by the EUCAST broth microdilution antifungal susceptibility test methodology with modification for the checkerboard procedure. […]
In equation 1, MIC0 refers to the AmB MIC measured without surfactants and MIC∞ is the lowest AmB MIC measured in the presence of surfactant. The maximal ratio in AmB MIC decrease defined as maximal efficacy (Emax) was calculated as the ratio of MIC0/MIC∞. […] These parameters were evaluated using WinNonlin software (version 6.2, Certara, NJ, USA) as described by Chauzy et al.

Description for human erythrocytes: Human blood samples from different healthy volunteers was collected in EDTA tubes and centrifuged at 3000×g for 5 minutes. Plasma was removed and the erythrocytes were washed four times with 2 ml of 0.9% NaCl by centrifugation at 3000×g for 5 minutes.
Erythrocytes were suspended in PBS pH 7.4 and their concentration was adjusted to 5·10^8 cells/mL. Erythrocytes were then incubated with AmB solubilised as a solution or loaded in LNP for 1 hour at 37° C. under shaking, then centrifuged at 3000×g for 5 minutes. Then, 100 μL of the supernatant were transferred in a flat-bottomed transparent 96-well plate and the absorbance was measured at 540 nm. Untreated erythrocytes dispersed in PBS were used as a negative control, and erythrocytes treated by 1% (v/v) of TritonX-100 were used as a positive control. Percentage of hemolysis was calculated using the following equation: 100*(Asample−Acontrol)/(aTritonX−100−Anegative), where Asample is the absorbance measured for each experimental conditions, Anegative and aTritonX-100 are the absorbance of negative and positive controls, respectively.
Sterile Dulbelcc”s phosphate buffered saline (DDPBS, Dominique Dutscher, Bernolsheim, France) pH 7 was also used as a medium to measure the hemolytic activity of AmB.

As to `C[C@@H]1[C@H](O)[C@@H](C)/C=C/C=C/C=C/C=C/C=C/C=C/C=C/[C@H](O[C@@H]2O[C@H](C)[C@@H](O)[C@H](N)[C@@H]2O)C[C@@H]2O[C@](O)(C[C@@H](O)C[C@@H](O)[C@H](O)CC[C@@H](O)C[C@@H](O)CC(=O)O[C@H]1C)C[C@H](O)[C@H]2C(=O)O` [AmB, amphotericin B], the “MIC of AmB” value in the data set on Rhizopus arrhizus 1 and with L. corymbifera was 1 µg/mL in each case. Moreover, the “effect on growth of the cryptococci at concentrations below the MIC” value in the data set with Cryptococcus neoformans is “had no effect on the growth profile”. The MIC with Cryptococcus neoformans (all the isolates (eight clinical strains)) is 0.25 to 1 µg/mL; with Cryptococcus neoformans (strain C1, 90% growth inhibition, absorbance at 530 nm), 0.5 µg/mL (≈ 0.541 µM); against Cryptococcus neoformans (strain C2, 90% growth inhibition, absorbance at 530 nm), 0.25 µg/mL (≈ 0.271 µM); against Cryptococcus neoformans (strain C3, 90% growth inhibition, absorbance at 530 nm) it was 0.5 µg/mL (≈ 0.541 µM); against Cryptococcus neoformans (strain C4, 90% growth inhibition, absorbance at 530 nm), 0.5 µg/mL (≈ 0.541 µM); in the data set with Cryptococcus neoformans (strain C5, 90% growth inhibition, absorbance at 530 nm), 1 µg/mL (≈ 1.08 µM). Moreover, the minimal inhibitory concentration (MIC) turned out to be 1 µg/mL (≈ 1.08 µM) in the data set on Cryptococcus neoformans (strain C6, 90% growth inhibition, absorbance at 530 nm); 1 µg/mL (≈ 1.08 µM) with Cryptococcus neoformans (strain C7, 90% growth inhibition, absorbance at 530 nm); 1 µg/mL (≈ 1.08 µM) against Cryptococcus neoformans (strain C8, 90% growth inhibition, absorbance at 530 nm). For the same compound, the hemolysis result is on record as “induce hemolysis” with human erythrocytes (in PBS, 5 to 15 mg/L of AmB) and “induce hemolysis” in the data set with human erythrocytes (in RPMI, AmB 15, 30 mg/L). The “MIC (agent alone)” value in data set [1] is “less than 1 mg/L”.
